Measured values taken from patent US20250326712A1, “IONIZABLE LIPIDS” (eTheRNA immunotherapies NV, priority 2022, published 2025).

How the values were obtained:
[1] = LNP size and polydispersity measured with a Zetasizer Nano; assay type: physicochemical; settings: LNP: ionizable lipid/DSPC/cholesterol/DMG-PEG2000 about 50/10/38.5/1.5, eGFP mRNA, dialyzed against TBS; for size: in nm (unit assumed)
Method: (§1) Lipid based nanoparticles were produced by microfluidic mixing of an mRNA solution in sodium acetate buffer (100 mM, pH 4) and lipid solution in a 2:1 volume ratio at a speed of 16 mL/min using the NanoAssemblr Benchtop (Precision Nanosystems). LNPs were produced at a standard molar ratio ionizable lipid/DSPC (Avanti Polar Lipids)/cholesterol (Sigma)/DMG-PEG2000 (Avanti Polar Lipids) of about 50/10/38.5/1.5. eGFP mRNA was encapsulated in all LNPs as reporter mRNA, at a mRNA/ionizable lipid molar ratio of 1/10. LNPs were dialyzed against TBS (10000 times more TBS volume than LNP volume) using slide-a-lyzer dialysis cassettes (20K MWCO, 3 mL, ThermoFisher). Size, polydispersity and zeta potential were measured with a Zetasizer Nano (Malvern). mRNA encapsulation was measured by standard Ribogreen RNA assay (Invitrogen).

[2] = tested on: hEPO expression; experiment: In vivo hEPO expression after IV mRNA LNP injection (hEPO ELISA); parameters: species or system BALB/c mice; settings: hEPO mRNA LNPs, 10 μg mRNA intravenous in tail vein, different timepoints, FIGS. 3 A & B
Method: LNPs were produced at a standard molar ratio ionizable lipid/DSPC/cholesterol/DMG-PEG2000 of about 50/10/38.5/1.5. Human erythropoietin (hEPO) mRNA was encapsulated in all LNPs at an mRNA/ionizable lipid molar ratio of 1/10.
BALB/c mice (female, 6 weeks old mice) were injected intravenously in the tail vein with 200 μl of the respective mRNA LNPs (10 μg mRNA, TBS buffer) or control buffer. Blood was collected from the submandibular vein at different timepoints after which hEPO concentrations were determined using hEPO ELISA assay kit (catalog #BMS2035-2—Thermofisher Scientific), according to the manufacturer's instructions.

[3] = mRNA encapsulation by Ribogreen RNA assay; assay type: physicochemical; settings: LNP: ionizable lipid/DSPC/cholesterol/DMG-PEG2000 about 50/10/38.5/1.5, eGFP mRNA, mRNA/ionizable lipid 1/10
Method: as §1

Row | SMILES | PDI [1] | size [1] | % encap [3] [%] | hEPO expression (serum concentration, area under curve) [2]
1 | CCCCCCCCCOC(=O)CCCCCCCN(CCCCCCCC(=O)OC(CCCCCCCC)CCCCCCCC)C(=O)OCCSSCCOC(=O)NCCN(C)C [ETG-53] | 0.085 | 103.23 | 97 | higher hEPO expression compared to ETG-23 control
2 | CCCCCC/C=C\COC(=O)CCCCCCCN(CCCCCCCC(=O)OC(CCCCCCCC)CCCCCCCC)C(=O)OCCSSCCOC(=O)NCCN(C)C [ETG-51] | 0.119 | 111.97 | 96 | 
3 | CCCCCC/C=C\COC(=O)CCCCCCCN(CCCCCCCC(=O)OC(CCCCCCCC)CCCCCCCC)C(=O)OCCSSCCOC(=O)NCCN1CCCCCC1 [ETG-52] | 0.099 | 90.70 | 97 | 
4 | CCCCCCCC/C=C\CCCCCCCC(=O)OCC(CNC(=O)OCCSSCCOC(=O)NCCN1CCCCCC1)OC(=O)CCCCCCC/C=C\CCCCCCCC (stereo not shown) [ETG-23, reference compound] | 0.082 | 75.97 | 97 | 

Second part, led by results:

Row | PDI [1] | size [1] | % encap [3] [%] | SMILES | hEPO expression (serum concentration, area under curve) [2]
5 | 0.120 | 86.26 | 98 | CCCCCCCCC(CC)OC(=O)CCCCCCCN(CCCCCCCC(=O)OC(CCCCCCCC)CCCCCCCC)C(=O)OCCSSCCOC(=O)NCCN1CCCCCC1 (stereo not shown) [ETG-56] | 
6 | 0.114 | 109.10 | 95 | CCCCCCCCC(CCCCCCCC)OC(=O)CCCCCCCN(CCCCCC(=O)OC(CCCCCCCC)CCCCCCCC)C(=O)OCCSSCCOC(=O)NCCN(C)C [ETG-57] | 
7 | 0.086 | 101.50 | 98 | CCCCCCCCC(CCCCCCCC)OC(=O)CCCCCCCN(CCCCCC(=O)OC(CCCCCCCC)CCCCCCCC)C(=O)OCCSSCCOC(=O)NCCN1CCCCCC1 [ETG-58] | 
8 | 0.123 | 93.73 | 96 | CCCCCCCCC(CC)OC(=O)CCCCCCCN(CCCCCCCC(=O)OC(CCCCCCCC)CCCCCCCC)C(=O)OCCSSCCOC(=O)NCCN(C)C (stereo not shown) [ETG-55] | 
9 | 0.150 | 90.30 | 98 | CCCCCCCCCOC(=O)CCCCCCCN(CCCCCCCC(=O)OC(CCCCCCCC)CCCCCCCC)C(=O)OCCSSCCOC(=O)NCCN1CCCCCC1 [ETG-54] | 
